Reference: patent publication US6979686B1, “Substituted pyrazoles as p38 kinase inhibitors” (Pharmacia Corporation, priority 2001, dated 2005)
Structures can show the parent of a compound that is named as a salt. Where two headings read alike, the source gives them in different places. One block for each compound: values may come before it.

Columns and labels:
[1] = tested on: human TNF, human whole blood stimulated with LPS; assay: TNF inhibition: human whole blood assay; type: cell-based; conditions: for TNF Inhibition-Human Whole Blood Assay: Table 9, percentage, concentration not given
Experimental: TNF Inhibition: Human Whole Blood Assay
Human peripheral blood is obtained in heparinized tubes. A 190 μL aliquot of blood is placed in each well of a 96 well u-bottom plate. […] After one hour of incubation at 37° C., […] of lipopolysaccharide (Salmonella typhosa, Sigma) in phosphate buffered saline is added resulting in a final concentration of […]. After four to five hours of incubation at 37° C., the supernatants are harvested and assayed at 1:10 or 1:20 dilutions for human TNF using ELISA.
In vitro human whole blood assay data for measuring the ability of the compounds to inhibit TNF production in human whole blood stimulated with LPS are shown in the column identified as: • “Human Whole Blood IC50, μM or %Inhib@conc. (μM)”
(§1) In vitro p38 alpha kinase inhibitory data are shown in the column identified as “p38 alpha IC50 (μM)”. In vitro human whole blood assay data for measuring the ability of the compounds to inhibit TNF production in human whole blood stimulated with LPS are shown in the column identified as: “HWB IC50 (μM)”. In vivo assessment of the ability of the compounds to inhibit LPS-stimulated TNF-release in the rat is shown in the column identified as: “ratLPS/%Inh@dose(mg/kg)”, wherein the dose is in milligram per kilogram (mg/kg) administered by oral gavage, 4 hours before LPS challenge.

[2] = tested on: TNF alpha, BALB/c mice injected with LPS; assay: Mouse model of LPS-induced TNF alpha production; type: in vivo; conditions: for Mouse LPS Model % TNF inhib @ dose @ predose time / inhibition in vivo at 30 mg/kg: 30 mpk oral gavage; for inhibition in vivo at 30 mg/kg: Mus musculus, read-out: Mouse LPS Model % TNF inhib @ dose @ predose time
Experimental: Mouse Model of LPS-induced TNF Alpha Production:
TNF alpha was induced in 10-12 week old BALB/c female mice by tail vein injection with 100 ng lipopolysaccharide (from S. Typhosa) in 0.2 ml saline. One hour later mice were bled from the retroorbital sinus and TNF concentrations in serum from clotted blood were quantified by ELISA.
Efficacy was determined at each time point as percent inhibition of serum TNF levels relative to LPS injected mice that received vehicle only.
In vivo assessment of the ability of the compounds to inhibit LPS-stimulated TNP release in the mouse is shown in the column identified as: • “Mouse LPS Model, % TNF inhib @ dose @ predose time” wherein in the dose is milligram per kilogram (mpk) administered by oral gavage and the predose time indicates the number of hours before LPS challenge when the compound is administered.

[3] = tested on: TNF-α, U937 human histiocytic lymphoma cell line; assay: LPS stimulation of TNF production by U937 cells; type: cell-based
Procedure, shortened: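 U937 cells differentiated 24 h with 20 ng/ml PMA, rested 24-48 h, used at 2 million cells/ml. Compounds in 0.1% DMSO final; LPS (E. coli, 100 ng/ml final) stimulation for 4 h at 37° C. Released TNF-α measured by ELISA; IC50 (μM).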

human p38 kinase alpha = molecular target: T1, human p38 kinase alpha (Homo sapiens, UniProt Q16539); assay: p38 kinase in vitro assay, phosphorylation of biotinylated PHAS-I with 32P-ATP; type: biochemical; conditions: for P38 alpha kinase % inhib @ conc. (uM): @ 1.0 uM; for IC50: read-out: P38 alpha kinase IC50
T1 construct: GST (N, cleaved yes); made in house; host or cells: E. coli DH10B

[4] = tested on: TNF-α, rats challenged with LPS; assay: Rat assay, LPS-stimulated TNF release; type: in vivo; conditions: for inhibition in vivo at 3 mg/kg / Rat LPS Model % inhib @ dose @ predose time: 3 mpk oral gavage, −4 h before LPS challenge; for inhibition in vivo at 3 mg/kg: read-out: Rat LPS Model % inhib @ dose @ predose time
Experimental: The efficacy of the novel compounds in blocking the production of TNF also was evaluated using a model based on rats challenged with LPS. Male Harlen Lewis rats [Sprague Dawley Co.] were used in this model. Each rat weighed approximately 300 g and was fasted overnight prior to testing. Compound administration was typically by oral gavage (although intraperitoneal, subcutaneous and intravenous administration were also used in a few instances) 1 to 24 hours prior to the LPS challenge. Rats were administered 30 μg/kg LPS [salmonella typhosa, Sigma Co.] intravenously via the tail vein. Blood was collected via heart puncture 1 hour after the LPS challenge. Serum samples were stored at −20° C. until quantitative analysis of TNF-α by Enzyme Linked-Immuno-Sorbent Assay (“ELISA”) [Biosource]. Additional details of the assay are set forth in Perretti, M., et al., Br. J. Pharmacol. (1993), 110, 868-874, which is incorporated by reference in this application.
In vivo assessment of the ability of the compounds to inhibit LPS-stimulated TNF release in the rat is shown in the column identified as: • “Rat LPS Model, % TNF inhib dose @ predose time” wherein in the dose is milligram per kilogram (mpk) administered by oral gavage and the predose time indicates the number of hours before LPS challenge when the compound is administered.
In vivo assessment of the ability of the compounds to inhibit LPS-stimulated TNF release in the rat is shown in the column identified as: • “Rat LPS Model % Inhibition@dose@predose time” wherein the dose is milligram per kilogram (mpk) administered by oral gavage and the predose time indicates the number of hours before LPS challenge when the compound is administered.
as §1

[5] = TNF production, human U937 cells stimulated with LPS, read-out: U937 Cell IC50
[6] = in vitro P38-alpha kinase inhibition
[7] = Homo sapiens, U-937, TNF production, human U937 cells stimulated with LPS, read-out: U937 Cell IC50

T1 sequence (Q16539 whole entry): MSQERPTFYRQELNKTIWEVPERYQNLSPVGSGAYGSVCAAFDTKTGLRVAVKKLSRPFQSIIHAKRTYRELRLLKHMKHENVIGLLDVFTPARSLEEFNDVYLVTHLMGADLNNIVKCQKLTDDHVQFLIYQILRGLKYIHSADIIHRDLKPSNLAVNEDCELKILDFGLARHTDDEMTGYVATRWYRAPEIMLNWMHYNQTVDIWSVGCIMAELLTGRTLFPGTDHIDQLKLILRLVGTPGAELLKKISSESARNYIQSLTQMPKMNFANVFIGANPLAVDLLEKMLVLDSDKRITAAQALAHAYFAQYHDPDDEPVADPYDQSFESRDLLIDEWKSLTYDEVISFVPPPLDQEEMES

Compound: OC1CCN(c2[nH]nc(-c3ccc(F)cc3)c2-c2ccncc2)CC1 [Example A-379, 1-[5-(4-fluorophenyl)-4-(4-pyridinyl)-1H-pyrazol-3-yl]-4-piperidinol]
TNF Inhibition-Human Whole Blood Assay [1]: 44%

IC50 [3, 5]: 590 nM | P38 alpha kinase % inhib @ conc. (uM) (human p38 kinase alpha): 79.0% @
Compound: C=CCOC(=O)NCCCc1[nH]nc(-c2ccc(F)cc2)c1-c1ccncc1 [Example B-1162]
Mouse LPS Model % TNF inhib @ dose @ predose time ([2]; −6 h before LPS challenge): 40% @ 30 mpk @ −6 h

melting point: 193.3 to 193.4 °C
Compound: N#Cc1ccc(C(=O)C(=C2SCS2)c2ccncc2)cc1 [Example A-396]

Compound: CC(NS(=O)(=O)c1cccc(Cl)c1)c1[nH]nc(-c2ccc(F)cc2)c1-c1ccncc1 (stereo not shown) [Example B-0639]
IC50 (human p38 kinase alpha; [6]): 51 nM | inhibition in vivo at 3 mg/kg ([4]; Rattus norvegicus, po): 50%

IC50 ([3]; Homo sapiens, U-937, TNF production in human U937 cells stimulated with LPS, read-out: U937 Cell IC50): 1010 nM | IC50 (human p38 kinase alpha; [6]): 450 nM
Compound: CC(C)C(=O)NC(C)c1[nH]nc(-c2ccc(F)cc2)c1-c1ccncc1 (stereo not shown) [Example B-0532]
inhibition in vivo at 30 mg/kg ([2]; −6 h before LPS challenge): 41%

melting point: 153.46 °C
Compound: CCn1nc(C)c(-c2ccncc2)c1-c1ccc(Cl)cc1 [Example A-207, 4-[3-(4-chlorophenyl)-2-ethyl-5-methyl-1H-pyrazol-4-yl]pyridine]

Compound: Fc1ccc(-c2n[nH]c(N3CCC4(CC3)OCCO4)c2-c2ccncc2)cc1 [Example A-380, 8-[5-(4-fluorophenyl)-4-(4-pyridinyl)-1H-pyrazol-3-yl]-1,4-dioxa-8-azaspiro[4.5]decane]
TNF Inhibition-Human Whole Blood Assay [1]: 32%

Compound: Fc1ccc(-c2n[nH]cc2-c2ccnc(NCCN3CCCCC3)c2)cc1 [Example A-375, 4-[3-(4-fluorophenyl)-1H-pyrazol-4-yl]-N-[2-(1-piperidinyl)ethyl]-2-pyridinamine]
TNF Inhibition-Human Whole Blood Assay [1]: 28%

Compound: O=C(c1ccc(F)cc1)N1CCC(c2[nH]nc(-c3ccc(F)cc3)c2-c2ccncc2)CC1 [Example B-1360]
inhibition in vivo at 3 mg/kg ([4]; Rattus norvegicus, po): 54%

IC50 ([1]; Table 10, read-out: TNF Inhibition-Human Whole Blood Assay): 0.28 µM
Compound: Clc1ccc(-c2n[nH]c(SC3CCNCC3)c2-c2ccncc2)cc1 [A-459 (salt)]

Compound: Cc1ccc(S(=O)(=O)NC(C)c2[nH]nc(-c3ccc(F)cc3)c2-c2ccncc2)cc1 (stereo not shown) [Example B-0576]
IC50 (human p38 kinase alpha; [6]): 68 nM | inhibition in vivo at 3 mg/kg ([4]; Rattus norvegicus, po): 65%

IC50 [3, 7]: 410 nM | IC50 (human p38 kinase alpha; in vitro P38-alpha kinase): < 100 nM
Compound: O=C(c1ccccc1F)N1CCC(c2[nH]nc(-c3ccc(F)cc3)c2-c2ccncc2)CC1 [Example B-1372]
inhibition in vivo at 30 mg/kg ([2]; predose time not printed ("@ -")): 48%

Compound: 5-[2-(1,1-DIMETHYL)AMINOETHYL]-4-(4-PYRIDYL)-3-(4-FLUOROPHENYL)PYRAZOLE [Example C-114]
IC50 ([1]; TNF production, human whole blood stimulated with LPS, read-out: Human Whole Blood IC50, μM or % Inhib @ conc. (μM): IC50): 1.73 µM

melting point: 218.17 °C
Compound: Clc1ccc(-c2n[nH]cc2-c2ccncn2)cc1 [Example A-310, 4-[3-(4-chlorophenyl)-1H-pyrazol-4-yl]pyrimidine]

IC50 ([1]; Homo sapiens, Table 10, read-out: TNF Inhibition-Human Whole Blood Assay): 1.47 µM
Compound: Clc1ccc(-c2n[nH]c(SCCOC3CCCCO3)c2-c2ccncc2)cc1 (stereo not shown) [Example A-474]

Compound: COc1ccc(-n2nc(-c3ccc(F)cc3)c(-c3ccncc3)c2-c2cnc[nH]2)cc1 [Example A-323, 4-[3-(4-fluorophenyl)-5-(1H-imidazol-4-yl)-1-(4-methoxyphenyl)-1H-pyrazol-4-yl]pyridine]
melting point: 124 to 126 °C | inhibition in vivo at 30 mg/kg ([4]; Rattus norvegicus, po, read-out: Rat LPS Assay % Inhibition, Table 8, dose 30.0 mg/kg): 40%

Compound: CC(=O)N1CCC(c2[nH]nc(-c3ccc(F)cc3)c2-c2ccncc2)CC1 [Example B-1363]
Mouse LPS Model % TNF inhib @ dose @ predose time ([2]; −6 h before LPS challenge): 51.0% @ 30 pmk @ | IC50 (human p38 kinase alpha; in vitro P38-alpha kinase): 9 nM | Rat LPS Model % inhib @ dose @ predose time [4]: 53% @ 3 mpk @ −4 h

Compound: CC(NS(=O)(=O)c1ccc(Cl)s1)c1[nH]nc(-c2ccc(F)cc2)c1-c1ccncc1 (stereo not shown) [Example B-0650]
IC50 (human p38 kinase alpha; [6]): 6 nM | inhibition in vivo at 3 mg/kg ([4]; Rattus norvegicus, po): 8%

melting point: 182.6 to 183 °C
Compound: O=C(C(=C1SCS1)c1ccncc1)c1ccc(OC(F)(F)F)cc1 [Example A-395]

Compound: COc1ccc(S(=O)(=O)NC(C)c2[nH]nc(-c3ccc(F)cc3)c2-c2ccncc2)cc1 (stereo not shown) [Example B-0574]
inhibition in vivo at 3 mg/kg ([4]; Rattus norvegicus, po): 37%

Compound: O=C1CCN(c2[nH]nc(-c3ccc(F)cc3)c2-c2ccncc2)CC1 [Example A-378, 1-[5-(4-fluorophenyl)-4-(4-pyridinyl)-1H-pyrazol-3-yl]-4-piperidinone]
TNF Inhibition-Human Whole Blood Assay [1]: 49%

melting point: 189.9 to 190.1 °C
Compound: Clc1ccc(-c2n[nH]c(SCCN3CCCC3)c2-c2ccncc2)cc1 [Example A-460]

Compound: O=C(NCCCc1[nH]nc(-c2ccc(F)cc2)c1-c1ccncc1)c1ccc(F)cc1 [Example B-1161]
Mouse LPS Model % TNF inhib @ dose @ predose time ([2]; −6 h before LPS challenge): 40% @ 30 mpk @ −6 h | P38 alpha kinase % inhib @ conc. (uM) (human p38 kinase alpha): 64.0% 2 | Rat LPS Model % inhib @ dose @ predose time [4]: 45% @ 3 mpk @ −4 h

Compound: O=C(C1CC1)N1CCC(c2[nH]nc(-c3ccc(F)cc3)c2-c2ccncc2)CC1 [Example B-1364]
inhibition in vivo at 30 mg/kg ([2]; −6 h before LPS challenge): 53% | IC50 [3, 7]: 270 nM | IC50 (human p38 kinase alpha; in vitro P38-alpha kinase): 9 nM | inhibition in vivo at 3 mg/kg ([4]; Rattus norvegicus, po): 17%

melting point: 163 to 165 °C
Compound: O=C(O)C(Cc1cnc[nH]1)Sc1[nH]nc(-c2ccc(Cl)cc2)c1-c1ccncc1 (stereo not shown) [Example A-471]

Compound: CC(NC(=O)C(C)(C)C)c1[nH]nc(-c2ccc(F)cc2)c1-c1ccncc1 (stereo not shown) [Example B-0601]
IC50 (human p38 kinase alpha; [6]): 89 nM | inhibition in vivo at 3 mg/kg ([4]; Rattus norvegicus, po): 43%

IC50 [3, 5]: 680 nM | P38 alpha kinase % inhib @ conc. (uM) (human p38 kinase alpha): 74% @
Compound: CC(=O)OCC(=O)NCCCc1[nH]nc(-c2ccc(F)cc2)c1-c1ccncc1 [Example B-1158]
Mouse LPS Model % TNF inhib @ dose @ predose time ([2]; −6 h before LPS challenge): 53% @ 30 mpk @ −6 h

Compound: O=C(NCCCc1[nH]nc(-c2ccc(F)cc2)c1-c1ccncc1)C1CC1 [Example B-1166]
Mouse LPS Model % TNF inhib @ dose @ predose time ([2]; −6 h before LPS challenge): 50% @ 30 mpk @ −6 h | P38 alpha kinase % inhib @ conc. (uM) (human p38 kinase alpha): 77.0% @ | Rat LPS Model % inhib @ dose @ predose time [4]: 50% @ 3 mpk @ −4 h

IC50 ([3]; Table 6, U937 cell assay, read-out: U937 IC50): 180 nM
Compound: Fc1ccc(CNc2cc(-c3cn(CCN4CCOCC4)nc3-c3ccc(F)cc3)ccn2)cc1 [Example A-285, N-[(4-fluorophenyl)methyl]-4-[3-(4-fluorophenyl)-1-[2-(4-morpholinyl)ethyl]-1H-pyrazol-4-yl]-2-pyridinamine]
mLPS 8 h percent inhibition ([2]; Table 6, mouse LPS, head '8 h', dose 30, oral gavage): 11%
